Laboratory results published in patent publication US20140051679A1, “KINASE INHIBITORS AND METHOD OF TREATING CANCER WITH SAME” (UNIVERISTY HEALTH NETWORKS, priority 2011, published 2014).

Experiments:
[1] = tested on: HCT116 colon cancer cells; experiment: Cell growth inhibition, Sulforhodamine B assay, HCT116; format: cell-based; conditions: Homo sapiens, HCT-116, 120 h, 5 days culture, SRB assay, read-out: Cell Line GI50 Range HCT116
Aurora B = target: T1, Aurora B (Homo sapiens, UniProt Q96GD4); experiment: Aurora B inhibition assay (Z-Lyte); format: biochemical; conditions: 28 nM Aurora B, 128 μM ATP; read-out: IC50 Ranges Aurora B
T1 construct: purchased Invitrogen PV3970
T1 sequence (Q96GD4 whole entry): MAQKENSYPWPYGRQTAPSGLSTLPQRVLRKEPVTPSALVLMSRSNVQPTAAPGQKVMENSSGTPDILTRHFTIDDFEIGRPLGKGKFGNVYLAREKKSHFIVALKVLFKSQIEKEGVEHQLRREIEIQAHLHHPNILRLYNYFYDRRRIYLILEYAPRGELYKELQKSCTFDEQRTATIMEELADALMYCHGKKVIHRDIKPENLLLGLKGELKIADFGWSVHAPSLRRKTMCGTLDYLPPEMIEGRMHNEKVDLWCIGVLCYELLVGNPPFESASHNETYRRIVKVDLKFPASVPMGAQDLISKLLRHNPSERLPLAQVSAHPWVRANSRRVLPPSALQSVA
Protocol: Aurora B inhibition was determined using the Z-Lyte assay kit from Invitrogen. The assay was performed using the recommended manufacturer's instructions with 128 μM ATP and 28 nM Aurora B (Invitrogen cat #PV3970). The % inhibition values were determined according to the manufacturer's directions and IC50 values were obtained using a non-linear 4 point logistic curve fit (XLfit4, IDBS)

human TTK = target: T2, human TTK (Homo sapiens, UniProt P33981); experiment: TTK inhibition assay (indirect ELISA); format: biochemical; conditions: GST-TTK 0.68 nM, 16 μM ATP; read-out: IC50 Ranges TTK
T2 construct: amino terminal GST fusion of full length human TTK; purchased Invitrogen
T2 sequence (P33981 1-857): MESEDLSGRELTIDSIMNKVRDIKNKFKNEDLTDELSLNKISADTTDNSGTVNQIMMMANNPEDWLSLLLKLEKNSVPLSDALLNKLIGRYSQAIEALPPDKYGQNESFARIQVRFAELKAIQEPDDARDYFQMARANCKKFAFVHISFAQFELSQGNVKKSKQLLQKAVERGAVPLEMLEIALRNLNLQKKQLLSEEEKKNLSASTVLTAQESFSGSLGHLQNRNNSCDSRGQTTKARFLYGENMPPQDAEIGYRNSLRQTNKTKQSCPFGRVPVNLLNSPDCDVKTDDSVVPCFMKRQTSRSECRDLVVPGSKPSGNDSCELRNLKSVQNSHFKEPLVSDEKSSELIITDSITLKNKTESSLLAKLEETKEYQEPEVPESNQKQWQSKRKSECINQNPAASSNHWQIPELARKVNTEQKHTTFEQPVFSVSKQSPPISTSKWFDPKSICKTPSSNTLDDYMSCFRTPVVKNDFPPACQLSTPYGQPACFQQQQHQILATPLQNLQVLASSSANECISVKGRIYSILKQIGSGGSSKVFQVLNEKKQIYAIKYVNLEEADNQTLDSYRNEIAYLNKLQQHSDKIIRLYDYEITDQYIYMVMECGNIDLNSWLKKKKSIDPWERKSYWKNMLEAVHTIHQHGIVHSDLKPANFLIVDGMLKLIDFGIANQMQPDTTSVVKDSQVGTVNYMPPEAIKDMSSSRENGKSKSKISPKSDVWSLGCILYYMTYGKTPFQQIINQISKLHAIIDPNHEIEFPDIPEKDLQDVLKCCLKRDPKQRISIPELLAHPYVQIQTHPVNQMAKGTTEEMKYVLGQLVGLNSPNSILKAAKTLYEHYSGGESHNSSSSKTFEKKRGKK

[2] = tested on: MDA-MB-468 breast cancer cells; experiment: Cell growth inhibition, Sulforhodamine B assay, MDA-MB-468; format: cell-based; conditions: Homo sapiens, 120 h, 5 days culture, SRB assay, read-out: Cell Line GI50 Range MDA-MB-468
Protocol: Breast cancer cells (MDA-MB-231, MDA-MB-468), colon cancer cells (HCT116, HT29) and ovarian cancer cells (PA-1, OVCAR-3) were seeded (1000 to 4000 in 80 μl per well depending on the cell growth rate) into 96 well plates 24 hours before compound overlay. Compounds were prepared as 10 mM stock solutions in 100% DMSO which were diluted with DMEM (Dulbecco's Modified Eagle's Medium) cell growth Medium (Invitrogen, Burlington, ON, Canada) containing 10% FBS (Fetal Bovine Serum) to concentrations ranging from 50 nM to 250 μM. Aliquots (20 μl) from each concentration were overlaid to 80 μl of the pre-seeded cells in the 96 well plates to make final concentrations of 10 nM to 50 μM. The cells were cultured for 5 days before the Sulforhodamine B assay (SRB) was performed to determine the compound's cell growth inhibition activity.
Sulforhodamine B (purchased from Sigma, Oakville, ON, Canada) is a water-soluble dye that binds to the basic amino acids of the cellular proteins. Thus, colorimetric measurement of the bound dye provides an estimate of the total protein mass that is related to the cell number. the cells are fixed in situ by gently aspirating off the culture media and adding 50 μl ice cold 10% Trichloroacetic Acid (TCA) per well and incubate at 4° C. for 30-60 min, The plates are washed with water five times and allowed to air dry for 5 min. Addition of 50 μl 0.4% (w/v) SRB solution in 1% (v/v) acetic acid to each well and incubatation for 30 min at RT completes the staining reaction. Following staining, plates are washed four times with 1% acetic acid to remove unbound dye and then allowed to air dry for 5 min. The stain is solubilized with 100 μl of 10 mM Tris pH 10.5 per well. Absorbance is read at 570 nm.
The percentage (%) of relative growth inhibition was calculated by comparing to DMSO treated only cells (100%). […] The GI50 was calculated using GraphPad PRISM software (GraphPad Software, Inc., San Diego, Calif., USA).

human PLK4 = target: T3, human PLK4 (Homo sapiens, UniProt O00444); experiment: PLK4 inhibition assay (indirect ELISA); format: biochemical; conditions: GST-PLK4 4 nM, 15 μM ATP; read-out: IC50 Ranges PLK4
T3 construct: amino terminal GST fusion of residues 1-391 of human PLK4; made in house; host or cells: E. coli
T3 sequence (O00444 1-391): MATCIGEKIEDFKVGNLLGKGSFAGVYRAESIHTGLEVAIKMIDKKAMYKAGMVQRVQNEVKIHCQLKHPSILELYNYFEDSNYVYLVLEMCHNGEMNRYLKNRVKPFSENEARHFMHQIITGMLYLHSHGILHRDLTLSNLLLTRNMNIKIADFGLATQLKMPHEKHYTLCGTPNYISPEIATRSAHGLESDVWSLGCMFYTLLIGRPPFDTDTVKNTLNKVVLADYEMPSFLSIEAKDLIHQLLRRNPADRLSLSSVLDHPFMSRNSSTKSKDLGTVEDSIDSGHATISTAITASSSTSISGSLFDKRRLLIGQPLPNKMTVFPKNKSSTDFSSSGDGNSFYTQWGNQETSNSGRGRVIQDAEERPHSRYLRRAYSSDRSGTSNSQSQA
Protocol: Active PLK4 was purified from an E. coli expression system as an amino terminal GST fusion of residues 1-391 of human PLK4. The protein was purified from clarified cell extracts after induction at 15° C. overnight using glutathione sepharose, gel permeation chromatography, and ion exchange (Resource Q). The resulting protein was dephosphorylated with lambda phosphatase (NEB cat#P0753), and resolved from the phosphatase using gluthione sepharose. The dephosphorylated GST-PLK4 was stored in aliquots at −80° C. until use.
PLK4 activity was measured using an indirect ELISA detection system. GST-PLK4 (4 nM) was incubated in the presence of 15 μM ATP (Sigma cat#A7699), 50 mM HEPES-Na^2+ pH 7.5, 10 mM MgCl2, 0.01% Brij 35 (Sigma cat#03-3170), in a 96 well microtitre plate pre-coated with MBP (Millipore cat#30-011). The reaction was allowed to proceed for 30 minutes, followed by 5 washes of the plate with Wash Buffer (phosphate buffered saline supplemented with 0.2% Tween 20), and incubation for 30 minutes with a 1:3000 dilution of primary antibody (Cell Signaling cat#9381). The plate was washed 5 times with Wash Buffer, incubated for 30 minutes in the presence of secondary antibody coupled to horse radish peroxidase (BioRad cat#1721019, 1:3000 concentration), washed an additional 5 times with Wash Buffer, and incubated in the presence of TMB substrate (Sigma cat#T0440). The colourimetric reaction was allowed to continue for 5 minutes, followed by addition of stop solution (0.5 N sulphuric acid), and quantified by detection at 450 nm with either a monochromatic or filter based plate reader (Molecular Devices M5 or Beckman DTX880, respectively).
Compound inhibition was determined at either a fixed concentration (10 μM) or at a variable inhibitor concentration (typically 0.5 μM to 0.001 μM in a 10 point dose response titration). Compounds were pre-incubated in the presence of enzyme for 15 minutes prior to addition of ATP and the activity remaining quantified using the above described activity assay. The % Inhibition of a compound was determined using the following formula; % Inhibition=100×(1-(experimental value−background value)/(high activity control−background value)). The IC50 value was determined using a non-linear 4 point logistic curve fit (XLfit4, IDBS) with the formula; (A+(B/(1+((x/C)̂D)))), where A=background value, B=range, C=inflection point, D=curve fit parameter.

HT29 colon cancer cells = experiment: Cell growth inhibition, Sulforhodamine B assay, HT29; format: cell-based; conditions: Homo sapiens, HT-29, 120 h, 5 days culture, SRB assay, read-out: Cell Line GI50 Range HT29

CN1CCC(Oc2ccc(-c3n[nH]c4ccc(NC(=O)C5c6ccccc6CCN5C)cc34)cc2)CC1 (stereo not drawn) [Example A39, 2-methyl-N-(3-(4-((1-methylpiperidin-4-yl)oxy)phenyl)-1H-indazol-5-yl)-1,2,3,4-tetrahydroisoquinoline-1-carboxamide]
≤ 5 µM: GI50 [1] | IC50 (Aurora B) | IC50 (human TTK) | GI50 [2] | IC50 (human PLK4) | GI50 (HT29 colon cancer cells)

O=C(Nc1ccc2[nH]nc(-c3ccc(NC4CCOCC4)cc3)c2c1)C(c1ccsc1)N1CCCC1 (stereo not drawn) [Example A71, 2-(pyrrolidin-1-yl)-N-(3-(4-((tetrahydro-2H-pyran-4-yl)amino)phenyl)-1H-indazol-5-yl)-2-(thiophen-3-yl)acetamide]
≤ 5 µM: GI50 [1] | IC50 (Aurora B) | IC50 (human TTK) | GI50 [2] | IC50 (human PLK4) | GI50 (HT29 colon cancer cells)

C[C@H]1CCCN1[C@H](C(=O)Nc1ccc2[nH]nc(-c3ccc(N4CCOCC4)cc3)c2c1)c1cccs1 [Example A79, (R)-2-((S)-2-methylpyrrolidin-1-yl)-N-(3-(4-morpholinophenyl)-1H-indazol-5-yl)-2-(thiophen-2-yl)acetamide]
≤ 5 µM: GI50 [1] | IC50 (Aurora B) | IC50 (human TTK) | GI50 [2] | IC50 (human PLK4) | GI50 (HT29 colon cancer cells)

CN(c1ccc(-c2n[nH]c3ccc(NC(=O)C(c4ccsc4)N4CCCC4)cc23)cc1)C1CCOCC1 (stereo not drawn) [Example A78, N-(3-(4-(methyl(tetrahydro-2H-pyran-4-yl)amino)phenyl)-1H-indazol-5-yl)-2-(pyrrolidin-1-yl)-2-(thiophen-3-yl)acetamide]
≤ 5 µM: GI50 [1] | IC50 (Aurora B) | IC50 (human TTK) | GI50 [2] | IC50 (human PLK4) | GI50 (HT29 colon cancer cells)

CN1CCC(Oc2ccc(-c3n[nH]c4ccc(NC(=O)C(c5ccsc5)N5CCCC5)cc34)cc2N)CC1 (stereo not drawn) [Example A80, N-(3-(3-amino-4-((1-methylpiperidin-4-yl)oxy)phenyl)-1H-indazol-5-yl)-2-(pyrrolidin-1-yl)-2-(thiophen-3-yl)acetamide]
≤ 5 µM: GI50 [1] | IC50 (Aurora B) | IC50 (human TTK) | GI50 [2] | IC50 (human PLK4) | GI50 (HT29 colon cancer cells)

C[C@H]1CCCN1[C@H](C(=O)Nc1ccc2[nH]nc(-c3ccc(N4CCOCC4)cc3)c2c1)c1ccsc1 [Example A47, (S)-2-((S)-2-methylpyrrolidin-1-yl)-N-(3-(4-morpholinophenyl)-1H-indazol-5-yl)-2-(thiophen-3-yl)acetamide]
≤ 5 µM: GI50 [1] | IC50 (Aurora B) | IC50 (human TTK) | GI50 [2] | IC50 (human PLK4) | GI50 (HT29 colon cancer cells)

C[C@@H]1CN(c2ccc(-c3n[nH]c4ccc(NC(=O)C(c5ccsc5)N5CCCC5)cc34)cc2)C[C@H](C)O1 (stereo partly drawn) [Example A50, N-(3-(4-((2S,6R)-2,6-dimethylmorpholino)phenyl)-1H-indazol-5-yl)-2-(pyrrolidin-1-yl)-2-(thiophen-3-yl)acetamide]
≤ 5 µM: GI50 [1] | IC50 (Aurora B) | IC50 (human TTK) | GI50 [2] | IC50 (human PLK4) | GI50 (HT29 colon cancer cells)

CN1[C@@H]2CC[C@H]1C[C@@H](Oc1ccc(-c3n[nH]c4ccc(C(=O)N[C@H](c5ccccn5)C5CC5)cc34)cc1)C2 [Example A213, N—((S)-cyclopropyl(pyridin-2-yl)methyl)-3-(4-(((1R,3r,5S)-8-methyl-8-azabicyclo[3.2.1]octan-3-yl)oxy)phenyl)-1H-indazole-5-carboxamide]
≤ 5 µM: IC50 (Aurora B) | IC50 (human TTK) | IC50 (human PLK4)

O=CN1CCC(Oc2ccc(-c3n[nH]c4ccc(C(=O)N[C@@H](c5ncccc5Cl)C5CC5)cc34)cc2)CC1 [Example A211, (R)—N-((3-chloropyridin-2-yl)(cyclopropyl)methyl)-3-(4-((1-formylpiperidin-4-yl)oxy)phenyl)-1H-indazole-5-carboxamide]
≤ 5 µM: IC50 (Aurora B) | IC50 (human TTK) | IC50 (human PLK4)

CN1CCC(Oc2ccc(-c3n[nH]c4ccc(C(=O)N[C@H](c5ccccn5)C5CC5)cc34)cc2)CC1 [Example A214, (S)—N-(cyclopropyl(pyridin-2-yl)methyl)-3-(4-((1-methylpiperidin-4-yl)oxy)phenyl)-1H-indazole-5-carboxamide]
≤ 5 µM: IC50 (Aurora B) | IC50 (human TTK) | IC50 (human PLK4)

COc1cc(-c2n[nH]c3ccc(C(=O)NC(c4ccccn4)C4CC4)cc23)ccc1OC1CCN(C=O)CC1 (stereo not drawn) [Example A206, N-(cyclopropyl(pyridin-2-yl)methyl)-3-(4-((1-formylpiperidin-4-yl)oxy)-3-methoxyphenyl)-1H-indazole-5-carboxamide]
≤ 5 µM: IC50 (Aurora B) | IC50 (human TTK) | IC50 (human PLK4)
